# Measurements as given in US4581354A, “3-arylcarbonyl- and 3-cycloalkylcarbonyl-1-aminoalkyl-1H-indoles, compositions and use” (Sterling Drug Inc., priority 1985, dated 1986).
# Structures can show the parent of a compound that is named as a salt. Where two headings read alike, the source gives them in different places.
# Experiments:
# [1] = test system: bradykinin; test: anti-bradykinin test (BRDK); format: in vivo; settings: for inhibition in vivo at 200 mg/kg: 200 mg./kg. oral; for inhibition in vivo at 300 mg/kg: 300 mg./kg. oral; for inhibition in vivo at 50 mg/kg: 50 mg./kg. oral; for inhibition in vivo at 30 mg/kg: 30 mg./kg. oral
# Source text: (§1) The test procedures used to determine the analgesic activities of the compounds have been described in detail in the prior art and are as follows: The acetylcholine-induced abdominal constriction test, which is a primary analgesic screening test designed to measure the ability of a test agent to suppress acetylcholine-induced abdominal constriction in mice, described by Collier et al., Brit. J. Pharmacol. Chemotherap. 32, 295 (1968); a modification of the anti-bradykinin test, which is also a primary analgesic screening procedure, described by Berkowitz et al., J. Pharmacol. Exptl. Therap. 177, 500-508 (1971), Blane et al., J. Pharm. Pharmacol. 19, 367-373 (1967), Botha et al., Eur. J. Pharmacol. 6, 312-321 (1969) and Deffenu et al., J. Pharm. Pharmacol. 18, 135 (1966); and the rat paw flexion test, described by Kuzuna et al., Chem. Pharm. Bull., 23, 1184-1191 (1975), Winter et al., J. Pharm. Exptl. Therap., 211, 678-685 (1979) and Capetola et al., J. Pharm. Exptl. Therap. 214, 16-23 (1980).
# (§2) Unless noted otherwise, all data were obtained on oral administration and are expressed either as the ED50 or as the percent inhibition at a given dose level (thus 30/100 or 30% inhibition at […].)
# (§3) In some instances, the compounds were retested two or more times, and ED50 values were calculated for each series of repeat tests. In such instances, each of the ED50 values so-obtained is given in a series of values, thus 6, 28, 30, 43 in the case of the species of Example 1AW in the acetylcholine-induced abdominal constriction test.
# [2] = test system: rat paw flexion; test: rat paw flexion test (P.F.); format: in vivo; settings: for inhibition in vivo at 30 mg/kg: 30 mg./kg. oral; for inhibition in vivo at 100 mg/kg: 100 mg./kg. oral; for ED50: oral; for inhibition in vivo at 10 mg/kg: 10 mg./kg. oral; for inhibition in vivo at 300 mg/kg: 300 mg./kg. oral
# Source text: as §1, §2, §3
# [3] = test system: acetylcholine-induced abdominal constriction; test: animal or person; format: in vivo, mice; settings: Mus musculus; for inhibition in vivo at 3 mg/kg: 3 mg./kg. i.v.; for inhibition in vivo at 10 mg/kg: 10 mg./kg. i.v.; for ED50: read-out: Ach ED50; for inhibition in vivo at 300 mg/kg: 300 mg./kg. oral; for inhibition in vivo at 1 mg/kg: 1 mg./kg. i.v.
# [4] = read-out: BRDK percent inhibition
# [5] = po, read-out: P.F. percent inhibition
# [6] = iv, read-out: Ach percent inhibition
# [7] = po, read-out: Ach percent inhibition
# [8] = 100 mg./kg. oral, read-out: BRDK percent inhibition
smiles,measurement,setting,value
CCc1ccc(C(=O)c2c(C)n(CCN3CCOCC3)c3ccccc23)cc1 [Example 1AC],inhibition in vivo at 200 mg/kg,[1]; [4],0%
same,inhibition in vivo at 30 mg/kg,[2]; [5],43%
same,inhibition in vivo at 50 mg/kg,"[2]; po, 50 mg./kg. oral, read-out: P.F. percent inhibition",57%
same,inhibition in vivo at 100 mg/kg,[2]; [5],75%
same,inhibition in vivo at 1.77 mg/kg,"[3]; iv, 1.77 mg./kg. i.v., read-out: Ach percent inhibition",10%
same,inhibition in vivo at 2.2 mg/kg,"[3]; iv, 2.2 mg./kg. i.v., read-out: Ach percent inhibition",10%
same,inhibition in vivo at 3 mg/kg,[3]; [6],80%
same,inhibition in vivo at 10 mg/kg,[3]; [6],100%
same,ED50,[3]; po,30 mg/kg
Cc1ccc(C(=O)c2c(C)n(CCN3CCOCC3)c3ccccc23)cc1 [Example 1AE],inhibition in vivo at 300 mg/kg,[1]; [4],20%
same,ED50,[2],66.2 mg/kg
same,ED50,[3]; po,29 mg/kg
Cc1c(C(=O)c2ccccc2)c2ccccc2n1CCN1CCOCC1 [Example 1AO],ED50,[1]; po,111 mg/kg
same,inhibition in vivo at 100 mg/kg,[2]; [5],75%
same,ED50,[3]; po,28 mg/kg
Cc1c(C(=O)c2ccc(Cl)cc2)c2ccccc2n1CCN1CCOCC1 [Example 1AQ],inhibition in vivo at 10 mg/kg,[2]; [5],0%
same,inhibition in vivo at 30 mg/kg,[2]; [5],12%
same,inhibition in vivo at 100 mg/kg,[2]; [5],12%
same,ED50,[3]; iv,17 mg/kg
same,inhibition in vivo at 300 mg/kg,[3]; [7],53%
Cc1c(C(=O)c2cccs2)c2ccccc2n1CCN1CCOCC1 [Example 1AT],inhibition in vivo at 50 mg/kg,[1]; [4],0%
same,inhibition in vivo at 200 mg/kg,[1]; [4],0%
same,ED50,[3]; po,30 mg/kg
COc1ccc2c(C(=O)c3ccc(Cl)cc3)c(C)n(CCN3CCOCC3)c2c1 [Example 1AU],inhibition in vivo at 50 mg/kg,[1]; [4],0%
same,ED50,[3]; po,42 mg/kg
COc1ccc2c(C(=O)c3cccs3)c(C)n(CCN3CCOCC3)c2c1 [Example 1AV],inhibition in vivo at 50 mg/kg,[1]; [4],0%
same,ED50,[3]; po,38 mg/kg
Cc1c(C(=O)c2ccccc2)c2ccccc2n1C(C)CN1CCOCC1 (centres unmarked) [Example 1AW],ED50,[1]; po,229 mg/kg
same,ED50,[2],26 mg/kg
Cc1c(C(=O)c2ccccc2)c2ccccc2n1CC(C)N1CCOCC1 (centres unmarked) [Example 1AX],inhibition in vivo at 212 mg/kg,"[1]; 212 mg./kg. oral, read-out: BRDK percent inhibition",0%
same,ED50,[3]; po,45 mg/kg
CC(CN1CCOCC1)n1cc(C(=O)c2ccccc2)c2ccccc21 (centres unmarked) [Example 1AY],ED50,[1]; po,141 mg/kg
same,inhibition in vivo at 30 mg/kg,[2]; [5],0%
same,inhibition in vivo at 100 mg/kg,[2]; [5],0%
same,inhibition in vivo at 300 mg/kg,[2]; [5],20%
same,ED50,[3]; iv,8.5 mg/kg
"COc1ccc(C(=O)c2c(C)n(CCN3CCOCC3)c3ccccc23)cc1 [Example 1B, 2-methyl-3-(4-methoxybenzoyl)-1-[2-(4-morpholinyl)ethyl]-1H-indole]",ED50,[1]; iv,8.1 mg/kg
same,ED50,[3]; iv,6.7 mg/kg
COc1ccc(C(=O)c2c(C)n(CCN3CCOCC3)c3ccccc23)c2ccccc12 [Example 1BI],inhibition in vivo at 6 mg/kg,"[1]; 6 mg./kg. oral, read-out: BRDK percent inhibition",0%
same,ED50,[3]; iv,0.69 mg/kg
same,inhibition in vivo at 300 mg/kg,[3]; [7],13%
same,inhibition in vivo at 100 mg/kg,"[3]; sc, 100 mg./kg. s.c., read-out: Ach percent inhibition",27%
CSc1ccc(C(=O)c2c(C)n(CCN3CCOCC3)c3ccccc23)cc1 [Example 1D],inhibition in vivo at 100 mg/kg,[1]; [8],0%
same,ED50,[2],64 mg/kg
same,ED50,[3]; iv,5.1 mg/kg
same,ED50,[3]; sc,49 mg/kg
Cc1c(C(=O)c2ccc([S+](C)[O-])cc2)c2ccccc2n1CCN1CCOCC1 (centres unmarked) [Example 1F],inhibition in vivo at 200 mg/kg,[1]; [4],0%
same,inhibition in vivo at 100 mg/kg,[2]; [5],88%
same,ED50,[3]; iv,13 mg/kg
same,ED50,[3]; po,20 mg/kg
Cc1c(C(=O)c2cc3ccccc3o2)c2ccccc2n1CCN1CCOCC1 [Example 1S],ED50,[1]; po,162 mg/kg
same,inhibition in vivo at 1 mg/kg,[3]; [6],10%
same,inhibition in vivo at 3 mg/kg,[3]; [6],20%
same,inhibition in vivo at 10 mg/kg,[3]; [6],100%
same,ED50,[3]; po,40 mg/kg
Cc1c(C(=O)c2ccccc2F)c2ccccc2n1C(C)CN1CCOCC1 (centres unmarked) [Example 2C],inhibition in vivo at 30 mg/kg,[1]; [4],0%
same,inhibition in vivo at 300 mg/kg,[1]; [4],60%
same,ED50,[3]; iv,3.3 mg/kg
same,ED50,[3]; po,19 mg/kg
COc1ccc(C(=O)c2c(C)n(C(C)CN3CCOCC3)c3ccccc23)cc1 (centres unmarked) [Example 2I],ED50,[1]; po,132 mg/kg
same,inhibition in vivo at 100 mg/kg,[2]; [5],62%
same,ED50,[3]; iv,2.6 mg/kg
same,ED50,[3]; po,28 mg/kg
same,ED50,[3]; sc,18 mg/kg
"COc1ccc(C(=O)c2c(C)n(CCN3CCCC(O)C3)c3ccccc23)cc1 (centres unmarked) [Example 3B, 1-[2-(3-hydroxy-1-piperidinyl)ethyl]-2-methyl-3-(4-methoxybenzoyl)-1H-indole]",inhibition in vivo at 30 mg/kg,[2]; [5],50%
same,inhibition in vivo at 100 mg/kg,[2]; [5],86%
same,inhibition in vivo at 300 mg/kg,[2]; [5],86%
same,ED50,[3]; iv,3 mg/kg
same,ED50,[3]; po,26.5 mg/kg
same,ED50,[3]; sc,10 mg/kg
"Cc1c(C(=O)c2cccc(N)c2)c2ccccc2n1CCN1CCOCC1 [Example 4A, 2-methyl-3-(3-aminobenzoyl)-1-[2-(4-morpholinyl)ethyl]-1H-indole]",ED50,[1]; po,53 mg/kg
same,ED50,[3]; po,16 mg/kg
"Cc1c(C(=O)c2ccc(N)cc2)c2ccccc2n1CCN1CCOCC1 [Example 4B, 2-methyl-3-(4-aminobenzoyl)-1-[2-(4-morpholinyl)ethyl]-1H-indole]",ED50,[1]; po,38 mg/kg
same,ED50,[2],27.6 mg/kg
same,ED50,[3]; iv,6 mg/kg
same,ED50,[3]; po,24 mg/kg
"CC(=O)Nc1ccc(C(=O)c2c(C)n(CCN3CCOCC3)c3ccccc23)cc1 [Example 5A, 2-methyl-3-(4-acetylaminobenzoyl)-1-[2-(4-morpholinyl)ethyl]-1H-indole]",inhibition in vivo at 300 mg/kg,[1]; [4],0%
same,inhibition in vivo at 1 mg/kg,[3]; [6],20%
same,inhibition in vivo at 3 mg/kg,[3]; [6],29%
same,inhibition in vivo at 10 mg/kg,[3]; [6],30%
same,ED50,[3]; po,31 mg/kg
CC(=O)Nc1cccc(C(=O)c2c(C)n(CCN3CCOCC3)c3ccccc23)c1 [Example 5B],ED50,[1]; po,61 mg/kg
same,inhibition in vivo at 10 mg/kg,[2]; [5],0%
same,inhibition in vivo at 30 mg/kg,[2]; [5],12%
same,inhibition in vivo at 100 mg/kg,[2]; [5],12%
same,ED50,[3]; po,25 mg/kg
"Cc1c(C(=O)c2ccc(NC(=O)C(F)(F)F)cc2)c2ccccc2n1CCN1CCOCC1 [Example 5C, 2-methyl-3-[4-(N-trifluoroacetylamino)benzoyl]-1-[2-(4-morpholinyl)ethyl]-1H-indole]",inhibition in vivo at 30 mg/kg,[1]; [4],20%
same,inhibition in vivo at 100 mg/kg,[1]; [8],60%
same,inhibition in vivo at 300 mg/kg,[1]; [4],60%
same,ED50,[3]; po,19 mg/kg
Cc1c(C(=O)c2ccc(NC(=O)c3ccccc3)cc2)c2ccccc2n1CCN1CCOCC1 [Example 5D],inhibition in vivo at 200 mg/kg,[1]; [4],20%
same,inhibition in vivo at 3 mg/kg,[3]; [6],57%
same,ED50,[3]; iv,29.1 mg/kg
same,ED50,[3]; po,84 mg/kg
"Cc1c(C(=O)c2ccc(O)cc2)c2ccccc2n1CCN1CCOCC1.Cl [Example 6, 2-methyl-3-(4-hydroxybenzoyl)-1-[2-(4-morpholinyl)ethyl]-1H-indole hydrochloride]",inhibition in vivo at 100 mg/kg,[1]; [8],0%
same,inhibition in vivo at 300 mg/kg,[1]; [4],0%
same,inhibition in vivo at 10 mg/kg,[3]; [6],0%
same,inhibition in vivo at 30 mg/kg,"[3]; iv, 30 mg./kg. i.v., read-out: Ach percent inhibition",0%
same,ED50,[3]; po,83 mg/kg
same,inhibition in vivo at 30 mg/kg,"[3]; sc, 30 mg./kg. s.c., read-out: Ach percent inhibition",13%
"Cc1c(C(=O)c2ccc(CN)cc2)c2ccccc2n1CCN1CCOCC1.Cl.Cl [Example 7, 2-methyl-3-(4-aminomethylbenzoyl)-1-[2-(4-morpholinyl)ethyl]-1H-indole dihydrochloride]",inhibition in vivo at 300 mg/kg,[1]; [4],0%
same,ED50,[3]; po,40 mg/kg
"CNc1ccc(C(=O)c2c(C)n(CCN3CCOCC3)c3ccccc23)cc1 [Example 8A, 2-methyl-3-(4-methylaminobenzoyl)-1-[2-(4-morpholinyl)-ethyl]-1H-indole dihydrochloride hemihydrate]",inhibition in vivo at 30 mg/kg,[2]; [5],62%
same,ED50,[3]; po,32 mg/kg
"Cc1c(C(=O)c2ccc(CNC(=N)N)cc2)c2ccccc2n1CCN1CCOCC1 [Example 17, 2-methyl-3-(4-guanidinylmethylbenzoyl)-1-[2-(4-morpholinyl)ethyl]-1H-indole sulfate (2:1)]",inhibition in vivo at 100 mg/kg,"[1]; sc, 100 mg./kg. s.c., read-out: BRDK percent inhibition",33%
same,inhibition in vivo at 30 mg/kg,"[3]; po, 30 mg./kg. oral, read-out: Ach percent inhibition",7%
same,ED50,[3]; sc,6.6 mg/kg
